This note sets out measurements from patent publication US20230277536A1, “METHODS AND COMPOSITIONS FOR TREATING EWING FAMILY OF TUMORS” (priority 2021, published 2023).

One test concerns SK-N-MC xenograft. As to the kind of experiment: Murine SK-N-MC xenograft Ewing tumor model. In kind it is in vivo, mice.
The subject of a further test is EWS-FLI1. As to the kind of experiment: Western-blot analysis of EWS-FLI1 expression level. As to conditions: A673 and SK-N-MC cells, 10 nM, 12-48 hrs; FIG. 5. Format: cell-based. As for the experimental part:
(§1) Western-blot analysis was performed to examine the suppression by YM155 on the expression level of EWS-FLI1, the protein product of EWSR1-FLI1 translocation, and its effector proteins MYC and cyclin D1. In brief, A673 and SK-N-MC cells seeded on 6-well plates were treated with 10 nM YM155 for 12-48 hrs. The cells were then harvested and lysed in a lysis buffer containing protease inhibitor cocktail (Beyotime, China) at 4C. The concentrations of total protein in the cell lysates were determined by BCA Protein Assay Kit (ThermoFisher, USA). Forty micrograms of total protein was used in each lane for SDS-PAGE and western-blot assay. Antibodies against EWS-FLI1, MYC, and cyclin D1 were used to detect the expression levels of the proteins. GAPDH was used as a loading control.

The subject of another test is A673 xenograft. Put plainly: Murine A673 xenograft Ewing tumor model.
The next test relates to A673 cell line. As to the kind of experiment: In vitro cell proliferation assay (EdU labeling, high-content screening). Format: cell-based. As to conditions: A673, EWSR1-FLI1 translocation; 72 hrs exposure, 2-fold dilutions from 200 nM; FIG. 1A. The method, then:
(§2) In vitro cell proliferation assays were performed to test the sensitivity of Ewing tumor cell lines to treatment with YM155. The A673 and SK-N-MC cell lines, each of which have the EWSR1-FLI1 translocation that is characteristic of most cases of Ewing tumors, were seeded in 96-well plates at 2×10^3 cells/well and allowed to attach overnight at 37° C. and 5% CO2. The cells were exposed to YM155 at designated concentrations (2-fold serial dilutions starting from 200 nM) for 72 hrs.
(§3) Following drug exposure, the cells were labeled with 5-ethynyl-2′- deoxyuridine (EdU) to assess the tumor cell proliferation rates. The labeling lasted 4 hours in the presence of drug exposure. […]
(§4) The labeled cells were fixed with formaldehyde for 30 min, followed by staining with Hoechst 33342 in a buffer containing 0.5% triton X-100. The incorporated Edu was detected by Click-iT reaction where fixed cells were incubated with a reaction mixture containing 1X Click-iT EdU reaction buffer, CuSO4, and azide-conjugated fluorescent dye in the dark. […]
(§5) The stained tumor cells were imaged by a high-content screening (HCS) platform (Thermo Scientific Cellomics Array Scan XTi HCS reader). […] From the images fluorescent signals for cell nucleus and the EdU incorporated in newly synthesized DNA were obtained from the HCS reader. […] The IC50 was calculated from the dose response curve of drug inhibition.

A further test has as its system SK-N-MC cell line. The description is as above. In kind it is cell-based. As to conditions: EWSR1-FLI1 translocation, 72 hrs exposure, 2-fold dilutions from 200 nM, FIG. 1B. The method, then: as §2, §3, §4, §5
The next test concerns cyclin D1. As to the kind of experiment: Western-blot analysis of cyclin D1 expression level. Format: cell-based. To be noted: A673 and SK-N-MC cells, 10 nM, 12-48 hrs; FIG. 5. As for the experimental part: as §1
For a further test, the system named is A673 cells. As to the kind of experiment: Apoptosis assays (Annexin V/PI and caspase 3 activity, flow cytometry). Format: cell-based. To be noted: 10 nM, 3 days drug exposure, vs DMSO, FIGS. 2A-2D. As for the experimental part:
(§6) Cellular apoptosis was then assayed with the Alexa Fluor™ 488 Annexin V/Dead cell apoptosis Kit (ThermoFisher®, USA) and GreenNuc™ live cell caspase 3 activity assay kit (Beyotime Biotechnology, China). Briefly, cells cultured in 6-well tissue culture plates were treated with 10 nM YM155 or DMSO (control). Following 3 days drug exposure, the cells were collected and assayed for apoptosis according to the manufacturers' instructions. For annexin V assay, the cell suspensions were incubated with Alexa Flour™ 488 labeled annexin V and Propidium Iodide (PI). For the caspase 3 activity assay, a caspase 3 substrate was added to generate fluorescent product. The cells were then analyzed on a BD LSR Fortessa cell analyzer. Flow cytometry data was analyzed with Flowjo software.
On the technique in general: In flow cytometry, cells or beads pass a laser one at a time.

A further test concerns SK-N-MC cells. Described as above. Format: cell-based. To be noted: 10 nM, 3 days drug exposure, vs DMSO, FIGS. 3A-3D. As for the experimental part: as §6
In the next test the test system is MYC. As to the kind of experiment: Western-blot analysis of MYC expression level. Format: cell-based. As to conditions: A673 and SK-N-MC cells, 10 nM, 12-48 hrs; FIG. 5. The method, then: as §1

Method for A673 xenograft: The dosing schedules in FIG. 4B are as follows: YM155 monobromide, 3.5 mg/kg, 21-day-infusion with an osmotic pump; vincristine, 0.5 mg/kg, QW*3, IV; doxorubicin, 3.3 mg/kg, QW*3, IV; cyclophosphamide, 40 mg/kg, QW*3, IV. The dosing schedules in FIG. 4B are as follows: YM155 monobromide, 2 mg/kg, 21-day-infusion with an osmotic pump; ifosfamide, 30 mg/kg, QW*3, IV; etoposide, 7.5 mg/kg, QW*3, IP. […] The dosing schedules were as follows: YM155 monobromide, 3.5 mg/kg, 21-day-infusion with an osmotic pump; vincristine, 0.5 mg/kg, QW*3, IV; doxorubicin, 3.3 mg/kg, QW*3, IV; cyclophosphamide, 40 mg/kg, QW*3, IV.
To test for in vivo activity, a Ewing tumor model was generated by implanting either A673 or SK-N-MC cells into mice. When the tumor size reached 150 mm3, the mice were grouped randomly and injected with YM155 by 21-day infusion with an osmotic pump. The tumor size was measured every three days.

Turning to “1-(2-Methoxyethyl)-2-methyl-4,9-dioxo-3-(pyrazin-2-ylmethyl)-4,9-dihydro-1H-naphtho[2,3-d] imidazolium bromide [YM155]”, the “effect on tumor growth” value in the test with SK-N-MC xenograft (SK-N-MC xenograft in mice, 3.5 mg/kg, 21-day infusion with osmotic pump, FIG. 4C) was “strong inhibitory effect on tumor growth”; in the test on A673 xenograft (A673 xenograft in mice, 21-day infusion with osmotic pump, 3.5 or 2 mg/kg, FIGS. 4A-4B), “strong inhibitory effect on tumor growth”. Moreover, the “efficacy compared with vincristine standalone therapy” value is recorded as “superior” with SK-N-MC xenograft (SK-N-MC xenograft, YM155 3.5 mg/kg 21-day infusion vs vincristine 0.5 mg/kg QW*3 IV) and “superior” in the test with A673 xenograft (A673 xenograft, YM155 3.5 mg/kg 21-day infusion vs vincristine 0.5 mg/kg QW*3 IV). The “efficacy compared with vincristine/doxorubicin/cyclophosphamide triple therapy” value in the test on SK-N-MC xenograft (SK-N-MC xenograft, YM155 3.5 mg/kg 21-day infusion vs vincristine 0.5, doxorubicin 3.3, cyclophosphamide 40 mg/kg QW*3 IV) is “superior”; in the test with A673 xenograft (A673 xenograft, YM155 3.5 mg/kg 21-day infusion vs vincristine 0.5, doxorubicin 3.3, cyclophosphamide 40 mg/kg QW*3 IV) it was “superior”. Besides, the “protein expression of EWS-FLI1” value in the test with EWS-FLI1 is “inhibited protein expression”. Moreover, the “efficacy compared with ifosfamide/etoposide combination therapy” value in the test on A673 xenograft (A673 xenograft, YM155 2 mg/kg 21-day infusion vs ifosfamide 30 mg/kg QW*3 IV, etoposide 7.5 mg/kg QW*3 IP) was “superior”. For the same substance, the “sensitivity to YM155 in in vitro cell proliferation assay” value in the test with A673 cell line and with SK-N-MC cell line was “highly sensitive” in each case. Besides, the “protein expression of cyclin D1” value in the test on cyclin D1 is on record as “inhibited protein expression”. In addition, the apoptosis induction entry in the test with A673 cells and in the test on SK-N-MC cells was “induced strong apoptosis” throughout. Moreover, the “protein expression of MYC” value in the test on MYC was “inhibited protein expression”.
